Reference: paper PMC3401096 (Molecular Biosystems, 2009)
Where a name gives a salt, the structure may show the parent alone. Read-outs that look alike come from different tables or passages of the source.

Columns and labels:
[1] = target: T1, JMJD2E (Homo sapiens, UniProt B2RXH2); assay: miniaturized 1,536-well FDH-coupled JMJD2E qHTS assay; format: biochemical
T1 sequence (B2RXH2 1-337): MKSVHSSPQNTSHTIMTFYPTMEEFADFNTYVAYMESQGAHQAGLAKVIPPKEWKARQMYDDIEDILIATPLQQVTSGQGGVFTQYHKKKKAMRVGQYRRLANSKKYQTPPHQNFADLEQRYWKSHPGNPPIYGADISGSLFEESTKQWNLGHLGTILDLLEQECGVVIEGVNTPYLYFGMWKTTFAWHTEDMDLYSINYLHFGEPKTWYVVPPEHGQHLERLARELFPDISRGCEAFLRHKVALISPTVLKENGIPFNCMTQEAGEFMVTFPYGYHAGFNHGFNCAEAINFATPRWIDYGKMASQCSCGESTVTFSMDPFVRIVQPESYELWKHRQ

[2] = target: T1, JMJD2E; assay: kinetic analysis of the mode of inhibition of JMJD2E with respect to 2OG; format: biochemical
[3] = target: T1, JMJD2E; assay: biochemical
[4] = target: T1, JMJD2E

Row | Compound | IC50 [1] [µM] | mode of inhibition of JMJD2E with respect to 2OG [2] | IC50 [3] [µM] | IC50 [4] [µM] | αKi ([2]; uncompetitive with respect to 2OG)
1 | O=c1cc(-c2ccccc2)oc2cc(O)c(O)c(O)c12 [Baicalein] | 4 | noncompetitive | 4.5 |  | 
2 | NCCc1ccc(O)c(O)c1 [Dopamine hydrochloride] | 7.1 |  | 2.2 |  | 
3 | O=C(O[C@@H]1Cc2c(O)cc(O)cc2O[C@@H]1c1cc(O)c(O)c(O)c1)c1cc(O)c(O)c(O)c1 [Epigallocatechin gallate] |  |  |  | 3 | 
4 | Oc1cc(O)c2c(c1)O[C@H](c1cc(O)c(O)c(O)c1)[C@H](O)C2 [Epigallocatechin] | 5 |  |  |  | 
5 | Oc1ccc(C2CNCCc3c2cc(O)c(O)c3Cl)cc1 (stereo not shown) [Fenoldopam bromide] | 7.9 |  | 10.1 |  | 
6 | C[C@](N)(Cc1ccc(O)c(O)c1)C(=O)O [L-Methyldopa] |  |  |  | 6.1 | 
7 | NCCc1cc(O)c(O)cc1O [Oxidopamine Hydrochloride] | 4 |  | 12.2 |  | 
8 | CC1(C)CCC2=C(O1)c1ccccc1C(=O)C2=O [beta-Lapachone] | 3.6 |  | 8.4 |  | 
9 | Oc1cc2c(cc1O)[C@@H]1c3ccc(O)c(O)c3OC[C@]1(O)C2 [hematoxylin] | 2 |  | 3.4 |  | 
10 | S(−)-Carbidopa |  | uncompetitive |  | 7.5 | 1.98 ± 0.17
